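Where inhibition never reached the appropriate level, the endpoint shown equals the highest concentration tested. Otherwise, values were interpolated linearly from a five-concentration, 48-hour dose response in 96-well plates. GI50 is the concentration that inhibits growth by half. TGI marks complete inhibition of growth.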
What was measured:
Test in all cases: inhibition of tumour cell growth, NCI panel, 48 h
786-0 renal = tested on: 786-0 renal
A498 renal = tested on: A498 renal
A549 NSCLC = tested on: A549 NSCLC
ACHN renal = tested on: ACHN renal
BT-549 breast = tested on: BT-549 breast
CAKI-1 renal = tested on: CAKI-1 renal
CCRF-CEM leukemia = tested on: CCRF-CEM leukemia
COLO 205 colon = tested on: COLO 205 colon
DU-145 prostate = tested on: DU-145 prostate
EKVX NSCLC = tested on: EKVX NSCLC
HCC-2998 colon = tested on: HCC-2998 colon
HCT-116 colon = tested on: HCT-116 colon
HCT-15 colon = tested on: HCT-15 colon
HL-60(TB) leukemia = tested on: HL-60(TB) leukemia
HOP-62 NSCLC = tested on: HOP-62 NSCLC
HOP-92 NSCLC = tested on: HOP-92 NSCLC
HS 578T breast = tested on: HS 578T breast
HT29 colon = tested on: HT29 colon
IGROV1 ovarian = tested on: IGROV1 ovarian
K-562 leukemia = tested on: K-562 leukemia
KM12 colon = tested on: KM12 colon
LOX IMVI melanoma = tested on: LOX IMVI melanoma
M14 melanoma = tested on: M14 melanoma
MALME-3M melanoma = tested on: MALME-3M melanoma
MCF7 breast = tested on: MCF7 breast
MDA-MB-231 breast = tested on: MDA-MB-231 breast
MDA-MB-435 = tested on: MDA-MB-435
MOLT-4 leukemia = tested on: MOLT-4 leukemia
NCI-H226 lung = tested on: NCI-H226 lung
NCI-H23 lung = tested on: NCI-H23 lung
NCI-H460 lung = tested on: NCI-H460 lung
NCI-H522 lung = tested on: NCI-H522 lung
NCI/ADR-RES ovarian = tested on: NCI/ADR-RES ovarian
OVCAR-3 ovarian = tested on: OVCAR-3 ovarian
OVCAR-4 ovarian = tested on: OVCAR-4 ovarian
OVCAR-5 ovarian = tested on: OVCAR-5 ovarian
OVCAR-8 ovarian = tested on: OVCAR-8 ovarian
PC-3 prostate = tested on: PC-3 prostate
RPMI-8226 leukemia = tested on: RPMI-8226 leukemia
RXF 393 renal = tested on: RXF 393 renal
SF-268 CNS = tested on: SF-268 CNS
SF-295 CNS = tested on: SF-295 CNS
SF-539 CNS = tested on: SF-539 CNS
SK-MEL-2 melanoma = tested on: SK-MEL-2 melanoma
SK-MEL-28 melanoma = tested on: SK-MEL-28 melanoma
SK-MEL-5 melanoma = tested on: SK-MEL-5 melanoma
SK-OV-3 ovarian = tested on: SK-OV-3 ovarian
SN12C renal = tested on: SN12C renal
SNB-19 CNS = tested on: SNB-19 CNS
SNB-75 CNS = tested on: SNB-75 CNS
SR leukemia = tested on: SR leukemia
SW-620 colon = tested on: SW-620 colon
T-47D breast = tested on: T-47D breast
TK-10 renal = tested on: TK-10 renal
U251 CNS = tested on: U251 CNS
UACC-257 melanoma = tested on: UACC-257 melanoma
UACC-62 melanoma = tested on: UACC-62 melanoma
UO-31 renal = tested on: UO-31 renal

CSc1ccc(/C(=N/N=C(N)N)c2ccc(Cl)cc2)cc1
GI50 (786-0 renal): 0.754 µM | TGI (786-0 renal): 2.35 µM | GI50 (A498 renal): 1.81 µM | TGI (A498 renal): 4.98 µM | GI50 (A549 NSCLC): 0.399 µM | TGI (A549 NSCLC): 4.81 µM | GI50 (ACHN renal): 0.744 µM | TGI (ACHN renal): 4.46 µM | GI50 (BT-549 breast): 1.7 µM | TGI (BT-549 breast): 3.35 µM | GI50 (CAKI-1 renal): 0.536 µM | TGI (CAKI-1 renal): 2.98 µM | GI50 (CCRF-CEM leukemia): 0.375 µM | TGI (CCRF-CEM leukemia): 5.99 µM | GI50 (COLO 205 colon): 0.298 µM | TGI (COLO 205 colon): 0.864 µM | GI50 (DU-145 prostate): 0.468 µM | TGI (DU-145 prostate): 4.24 µM | GI50 (EKVX NSCLC): 1.03 µM | TGI (EKVX NSCLC): 14.7 µM | GI50 (HCC-2998 colon): 0.333 µM | TGI (HCC-2998 colon): 1.16 µM | GI50 (HCT-116 colon): 0.364 µM | TGI (HCT-116 colon): 1.27 µM | GI50 (HCT-15 colon): 0.34 µM | TGI (HCT-15 colon): 2.14 µM | GI50 (HL-60(TB) leukemia): 0.268 µM | TGI (HL-60(TB) leukemia): 0.784 µM | GI50 (HOP-62 NSCLC): 0.569 µM | TGI (HOP-62 NSCLC): 5.66 µM | GI50 (HOP-92 NSCLC): 0.663 µM | TGI (HOP-92 NSCLC): 5.51 µM | GI50 (HS 578T breast): 1.28 µM | TGI (HS 578T breast): 14.9 µM | GI50 (HT29 colon): 0.332 µM | TGI (HT29 colon): 1.13 µM | GI50 (IGROV1 ovarian): 0.86 µM | TGI (IGROV1 ovarian): 5.86 µM | GI50 (K-562 leukemia): 0.342 µM | TGI (K-562 leukemia): 1.7 µM | GI50 (KM12 colon): 0.416 µM | TGI (KM12 colon): 4.01 µM | GI50 (LOX IMVI melanoma): 0.397 µM | TGI (LOX IMVI melanoma): 1.52 µM | GI50 (M14 melanoma): 0.362 µM | TGI (M14 melanoma): 1.27 µM | GI50 (MALME-3M melanoma): 0.869 µM | TGI (MALME-3M melanoma): 2.41 µM | GI50 (MCF7 breast): 0.355 µM | TGI (MCF7 breast): 2.06 µM | GI50 (MDA-MB-231 breast): 0.499 µM | TGI (MDA-MB-231 breast): 3.18 µM | GI50 (MDA-MB-435): 0.242 µM | TGI (MDA-MB-435): 0.593 µM | GI50 (MOLT-4 leukemia): 0.422 µM | TGI (MOLT-4 leukemia): 3.52 µM | GI50 (NCI-H226 lung): 1.18 µM | TGI (NCI-H226 lung): 6.4 µM | GI50 (NCI-H23 lung): 0.617 µM | TGI (NCI-H23 lung): 12 µM | GI50 (NCI-H460 lung): 0.376 µM | TGI (NCI-H460 lung): 1.51 µM | GI50 (NCI-H522 lung): 0.213 µM | TGI (NCI-H522 lung): 0.516 µM | GI50 (NCI/ADR-RES ovarian): 0.748 µM | TGI (NCI/ADR-RES ovarian): 2.87 µM | GI50 (OVCAR-3 ovarian): 0.5 µM | TGI (OVCAR-3 ovarian): 4.13 µM | GI50 (OVCAR-4 ovarian): 1.55 µM | TGI (OVCAR-4 ovarian): 13.2 µM | GI50 (OVCAR-5 ovarian): 0.496 µM | TGI (OVCAR-5 ovarian): 7.27 µM | GI50 (OVCAR-8 ovarian): 0.607 µM | TGI (OVCAR-8 ovarian): 3.87 µM | GI50 (PC-3 prostate): 0.447 µM | TGI (PC-3 prostate): 5.22 µM | GI50 (RPMI-8226 leukemia): 0.456 µM | TGI (RPMI-8226 leukemia): 3.13 µM | GI50 (RXF 393 renal): 0.509 µM | TGI (RXF 393 renal): 2.14 µM | GI50 (SF-268 CNS): 1.06 µM | TGI (SF-268 CNS): 6.63 µM | GI50 (SF-295 CNS): 0.368 µM | TGI (SF-295 CNS): 1.57 µM | GI50 (SF-539 CNS): 0.291 µM | TGI (SF-539 CNS): 0.935 µM | GI50 (SK-MEL-2 melanoma): 0.473 µM | TGI (SK-MEL-2 melanoma): 3.84 µM | GI50 (SK-MEL-28 melanoma): 0.957 µM | TGI (SK-MEL-28 melanoma): 2.35 µM | GI50 (SK-MEL-5 melanoma): 0.949 µM | TGI (SK-MEL-5 melanoma): 2.16 µM | GI50 (SK-OV-3 ovarian): 0.593 µM | TGI (SK-OV-3 ovarian): 14.3 µM | GI50 (SN12C renal): 0.5 µM | TGI (SN12C renal): 2.21 µM | GI50 (SNB-19 CNS): 0.696 µM | TGI (SNB-19 CNS): 14.2 µM | GI50 (SNB-75 CNS): 0.38 µM | TGI (SNB-75 CNS): 4.14 µM | GI50 (SR leukemia): 0.349 µM | TGI (SR leukemia): 2.3 µM | GI50 (SW-620 colon): 0.48 µM | TGI (SW-620 colon): 1.96 µM | GI50 (T-47D breast): 0.558 µM | TGI (T-47D breast): 4.94 µM | GI50 (TK-10 renal): 2.83 µM | TGI (TK-10 renal): 12.6 µM | GI50 (U251 CNS): 0.382 µM | TGI (U251 CNS): 2.17 µM | GI50 (UACC-257 melanoma): 0.891 µM | TGI (UACC-257 melanoma): 2.52 µM | GI50 (UACC-62 melanoma): 0.707 µM | TGI (UACC-62 melanoma): 2.42 µM | GI50 (UO-31 renal): 1 µM | TGI (UO-31 renal): 4.03 µM

From PubChem BioAssay (NCI)
